Target: acyl-CoA:cholesterol acyltransferase (ACAT)
Experiment: in vitro ACAT inhibition test (formation of radio-labeled cholesterol oleate from radio-labeled oleic acid in rabbit intestinal microsomes)
Type: biochemical
Details: tissue preparation containing rabbit intestinal microsomes; acylation of cholesterol by oleic acid; read-out: IC₅₀

Row | IC50 | Structure (SMILES)
1 | 0.03 µM | CCCC(CCC)(CNC(=O)Nc1c(C(C)C)cccc1C(C)C)c1ccccc1 [Example 1, N-[2,6-bis(1-Methylethyl)phenyl]-N′-(2-phenyl-2-propylpentyl)urea]
2 | 0.017 µM | CCC(CC)(CNC(=O)Nc1c(C(C)C)cccc1C(C)C)c1ccccc1 [Example 2, N-[2,6-bis(1-Methylethyl)phenyl]-N′-(2-ethyl-2-phenylbutyl)urea]
3 | 0.03 µM | CCCCC(CCCC)(CNC(=O)Nc1c(C(C)C)cccc1C(C)C)c1ccccc1 [Example 5, N-[2,6-bis(1-Methylethyl)phenyl]-N′-(2-butyl-2-phenylhexyl)urea]
4 | 0.088 µM | CC(C)c1cccc(C(C)C)c1NC(=O)NCCc1ccccc1 [Example 6, N-[2,6-bis(1-Methylethyl)phenyl]-N′-(2-phenylethyl)urea]
5 | 0.035 µM | CC(C)c1cccc(C(C)C)c1NC(=O)NCC(C)c1ccccc1 (stereo not shown) [Example 7]
6 | 0.191 µM | CC(C)c1cccc(C(C)C)c1NC(=O)NCCCc1ccccc1 [Example 8, N-[2,6-bis(1-Methylethyl)phenyl]-N′-(3-phenylpropyl)urea]
7 | 0.034 µM | CC(C)c1cccc(C(C)C)c1NC(=O)NCc1cccc2ccccc12 [Example 9, N-[2,6-bis(1-Methylethyl)phenyl]-N′-[(1-naphthalenyl)methyl]urea]
8 | 0.041 µM | CC(C)c1cccc(C(C)C)c1NC(=O)NCCc1cccc2ccccc12 [Example 10, N-[2,6-bis(1-Methylethyl)phenyl]-N′-[2-(1-naphthalenyl)ethyl]urea]
9 | 0.035 µM | CC(C)c1cccc(C(C)C)c1NC(=O)N[C@H](C)c1cccc2ccccc12 [Example 12, [R]-N-[2,6-bis(1-Methylethyl)phenyl]-N′-[1-(1-naphthalenyl)ethyl]urea]
10 | 0.63 µM | CC(C)c1cccc(C(C)C)c1NC(=O)N[C@@H](C)c1cccc2ccccc12 [Example 13, [S]-N-[2,6-bis(1-Methylethyl)phenyl]-N′-[1-(1-naphthalenyl)ethyl]urea]
